Reference: ChEMBL document CHEMBL1201862, “PubChem BioAssay data set” (2004)
The source made the active and inactive calls.

Assays:
Genome polyprotein = Genome polyprotein (dengue virus type 2, UniProt P29990); assay: flavivirus cap methylation enzyme inhibition – biochemical, confirmation dose response, primary screen (AID 588689); assay type: functional
Cytochrome P450 2C19 = Cytochrome P450 2C19 (Homo sapiens, UniProt P33261); assay: Cytochrome panel assay with activity outcomes. Panel member name: p450-cyp2c19 Compounds with AC50 equal or less than 10 uM are considered active; assay type: functional; conditions: read-out: AC50
Cytochrome P450 2C9 [1] = target: T1, Cytochrome P450 2C9 (Homo sapiens, UniProt P11712)
Cytochrome P450 3A4 [2] = target: T2, Cytochrome P450 3A4 (Homo sapiens, UniProt P08684);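 note: CYP3A4 tested as one member of a cytochrome P450 panel screen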
Cytochrome P450 1A2 = target: T3, Cytochrome P450 1A2 (Homo sapiens, UniProt P05177);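 note: PubChem cytochrome P450 panel assay, CYP1A2 panel member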
T3 sequence (P05177 whole entry): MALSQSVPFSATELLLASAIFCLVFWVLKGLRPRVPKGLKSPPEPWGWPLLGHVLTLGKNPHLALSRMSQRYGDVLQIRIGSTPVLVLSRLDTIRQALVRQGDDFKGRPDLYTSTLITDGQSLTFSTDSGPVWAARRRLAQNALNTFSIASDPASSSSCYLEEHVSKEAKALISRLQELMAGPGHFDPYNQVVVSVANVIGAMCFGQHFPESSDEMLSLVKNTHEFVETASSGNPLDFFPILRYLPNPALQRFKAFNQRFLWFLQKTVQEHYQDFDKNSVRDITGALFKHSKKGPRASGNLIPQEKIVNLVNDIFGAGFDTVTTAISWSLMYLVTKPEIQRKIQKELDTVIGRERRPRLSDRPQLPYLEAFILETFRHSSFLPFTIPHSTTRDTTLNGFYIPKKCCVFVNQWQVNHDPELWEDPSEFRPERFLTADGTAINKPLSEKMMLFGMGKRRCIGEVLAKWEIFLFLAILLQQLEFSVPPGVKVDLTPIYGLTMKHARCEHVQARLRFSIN

Cytochrome P450 2C9 [3] = target: T1, Cytochrome P450 2C9; remark: listed apart in the source
[4] = THP-1 cell cytotoxicity, dose response, cytotoxicity control for non-replicating M. tuberculosis project (AID 489025); assay type: functional
[5] = Vero E6 cell cytotoxicity, dose response, cytotoxicity control for non-replicating M. tuberculosis project, secondary assay (AID 492998); assay type: functional, VeroE6; conditions: Vero C1008
cells = assay type: functional
HEK293 [6] = assay: inhibition of NOD1-driven NF-kB reporter – cell-based, luminescence, uHTS, primary screen (AID 1578); assay type: functional; conditions: Homo sapiens
HEK293 [7] = assay: cells; assay type: functional, cell-based; conditions: Homo sapiens
HEK293 [8] = assay: cells; assay type: functional, cell-based; conditions: Homo sapiens; remark: listed apart in the source
[9] = target: Nucleotide-binding oligomerization domain-containing protein 2 (Homo sapiens, UniProt Q9HC29); assay: inhibition of NOD2-driven NF-kB reporter – cell-based, luminescence, uHTS, HEK293 (AID 1566); assay type: functional
HEK293 [10] = assay: NOD2 signaling inhibitors in MDP-stimulated cells, cell-based, uHTS, luminescence (AID 2001); assay type: functional; conditions: Homo sapiens
HEK293 [11] = assay: cells; assay type: functional, cell-based; conditions: Homo sapiens; remark: listed apart in the source
Cytochrome P450 2D6 = Cytochrome P450 2D6 (Homo sapiens, UniProt P10635);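 note: CYP2D6 member of a cytochrome P450 panel assay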
Cysteine protease ATG4B = target: T4, Cysteine protease ATG4B (Homo sapiens, UniProt Q9Y4P1); assay type: functional;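 note: Fluorescence-based dose-response confirmation assay measuring inhibition of ATG4B activity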
T4 sequence (Q9Y4P1 whole entry): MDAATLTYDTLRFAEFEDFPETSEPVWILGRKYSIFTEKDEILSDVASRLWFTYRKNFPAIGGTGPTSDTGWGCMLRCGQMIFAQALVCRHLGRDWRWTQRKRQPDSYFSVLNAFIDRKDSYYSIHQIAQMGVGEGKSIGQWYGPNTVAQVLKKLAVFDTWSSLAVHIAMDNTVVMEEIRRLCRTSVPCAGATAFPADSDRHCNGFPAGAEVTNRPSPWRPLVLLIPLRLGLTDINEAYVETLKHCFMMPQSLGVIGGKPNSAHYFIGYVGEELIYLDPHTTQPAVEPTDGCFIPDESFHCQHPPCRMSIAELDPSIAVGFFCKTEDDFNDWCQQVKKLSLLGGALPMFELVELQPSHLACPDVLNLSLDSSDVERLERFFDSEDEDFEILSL

Phospholipase A2 = Phospholipase A2 (Homo sapiens, UniProt P04054); assay type: functional;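 note: confirmatory dose-response counterscreen on phospholipase A2, testing hits that came from an ultra-high-throughput screen for ATG4B inhibitors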
[12] = Trypanosoma cruzi growth suppression in host cells – NIH3T3 host cells, beta-gal luminescence, confirmation (AID 2044); assay type: functional, cell-based;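 note: intracellular parasites grown in NIH/3T3 mouse fibroblasts as host cells; luminescent beta-galactosidase reporter signal from transgenic T. cruzi replicating inside host cells; inhibitors lower the luminescence signal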
[13] = NIH3T3 cell viability loss – ATP luminescence, mouse fibroblasts, counter-screen, dose response (AID 2010); assay type: functional, cell-based;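 note: cells exposed to compound for about 90 hours before reading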
[14] = target: Heat shock protein HSP 90-alpha (Homo sapiens, UniProt P07900); assay type: functional, organism-based
[15] = tested on: Streptococcus sp. 'group A'; assay: Streptococcus pyogenes SK(-)GAS viability under kanamycin – luminescence, BacTiterGlo, confirmation, counter-screen for streptokinase expression inhibitor project, dose response (AID 1900); assay type: functional, organism-based
Streptokinase A = target: T5, Streptokinase A (Streptococcus pyogenes serotype M1, UniProt P10520); assay: viability-normalized secreted streptokinase activity reduction – plasminogen activation absorbance, OD405, dose response (AID 1914); assay type: functional, Streptococcus pyogenes M1 GAS;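 note: secreted streptokinase activity via plasminogen activation per viability signal from cell pellet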
T5 sequence (P10520 whole entry): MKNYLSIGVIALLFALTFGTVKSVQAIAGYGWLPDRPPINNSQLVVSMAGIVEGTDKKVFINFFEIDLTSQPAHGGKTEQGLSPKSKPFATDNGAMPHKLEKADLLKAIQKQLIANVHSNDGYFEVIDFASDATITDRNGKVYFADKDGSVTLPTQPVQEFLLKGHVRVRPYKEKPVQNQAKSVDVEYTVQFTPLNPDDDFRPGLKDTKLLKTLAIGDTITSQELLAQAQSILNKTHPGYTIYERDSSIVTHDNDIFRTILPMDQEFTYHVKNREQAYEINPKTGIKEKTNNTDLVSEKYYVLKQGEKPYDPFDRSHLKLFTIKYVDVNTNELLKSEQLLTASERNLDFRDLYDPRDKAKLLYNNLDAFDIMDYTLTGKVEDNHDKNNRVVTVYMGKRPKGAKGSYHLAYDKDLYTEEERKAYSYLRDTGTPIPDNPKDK

Streptococcus = assay: GAS UMAA2166 growth inhibition – luminescence, BacTiterGlo, counter-screen for streptokinase expression inhibitor project, dose response (AID 1915); assay type: functional, organism-based;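 note: potency for reduction of bacterial viability or growth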
[16] = target: T6, Carboxy-terminal domain RNA polymerase II polypeptide A small phosphatase 1 (Homo sapiens, UniProt Q9GZU7); assay: CTDSP1 inhibitors, concentration-response, biochemical, absorbance readout, ultra-high-throughput screen actives (AID 540297); assay type: functional
T6 sequence (Q9GZU7 whole entry): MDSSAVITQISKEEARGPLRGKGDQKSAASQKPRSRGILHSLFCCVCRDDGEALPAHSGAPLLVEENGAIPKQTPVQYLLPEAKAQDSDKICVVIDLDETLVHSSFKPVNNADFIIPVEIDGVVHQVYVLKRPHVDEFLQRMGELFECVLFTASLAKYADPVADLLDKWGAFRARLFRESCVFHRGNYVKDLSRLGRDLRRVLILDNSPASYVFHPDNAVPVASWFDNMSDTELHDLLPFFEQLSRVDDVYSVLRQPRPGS

[17] = target: T7, Rac GTPase-activating protein 1 (Homo sapiens, UniProt Q9H0H5); assay: blockers of MgcRacGAP-driven Rac1 GTP hydrolysis – biochemical, ADP Hunter fluorescence, primary and confirmatory, confirmation (AID 624330); assay type: functional
T7 sequence (Q9H0H5 whole entry): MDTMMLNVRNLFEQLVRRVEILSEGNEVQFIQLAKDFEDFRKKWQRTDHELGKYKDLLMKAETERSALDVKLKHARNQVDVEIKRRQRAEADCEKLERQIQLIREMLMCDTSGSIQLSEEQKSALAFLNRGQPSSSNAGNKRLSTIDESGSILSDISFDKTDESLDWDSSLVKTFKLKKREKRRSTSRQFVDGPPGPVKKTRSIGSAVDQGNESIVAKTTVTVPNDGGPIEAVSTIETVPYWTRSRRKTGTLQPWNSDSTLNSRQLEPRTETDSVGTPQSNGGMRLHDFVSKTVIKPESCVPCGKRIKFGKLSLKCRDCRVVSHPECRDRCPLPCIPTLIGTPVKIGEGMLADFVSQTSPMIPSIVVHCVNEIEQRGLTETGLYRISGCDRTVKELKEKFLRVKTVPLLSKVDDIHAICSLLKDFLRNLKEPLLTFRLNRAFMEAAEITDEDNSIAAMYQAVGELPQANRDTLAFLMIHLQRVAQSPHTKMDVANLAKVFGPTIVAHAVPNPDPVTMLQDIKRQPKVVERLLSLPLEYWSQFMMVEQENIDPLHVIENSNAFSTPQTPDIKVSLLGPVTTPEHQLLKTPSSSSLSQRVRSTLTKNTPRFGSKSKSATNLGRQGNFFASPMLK

Cytochrome P450 3A4 [18] = target: T2, Cytochrome P450 3A4; remark: listed apart in the source

Sequence of Phospholipase A2 (P04054 whole entry): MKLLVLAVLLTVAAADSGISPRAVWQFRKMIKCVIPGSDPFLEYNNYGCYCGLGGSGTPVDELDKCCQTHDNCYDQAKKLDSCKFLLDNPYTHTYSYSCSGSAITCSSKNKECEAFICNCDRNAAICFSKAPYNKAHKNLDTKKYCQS
T2 sequence (P08684 whole entry): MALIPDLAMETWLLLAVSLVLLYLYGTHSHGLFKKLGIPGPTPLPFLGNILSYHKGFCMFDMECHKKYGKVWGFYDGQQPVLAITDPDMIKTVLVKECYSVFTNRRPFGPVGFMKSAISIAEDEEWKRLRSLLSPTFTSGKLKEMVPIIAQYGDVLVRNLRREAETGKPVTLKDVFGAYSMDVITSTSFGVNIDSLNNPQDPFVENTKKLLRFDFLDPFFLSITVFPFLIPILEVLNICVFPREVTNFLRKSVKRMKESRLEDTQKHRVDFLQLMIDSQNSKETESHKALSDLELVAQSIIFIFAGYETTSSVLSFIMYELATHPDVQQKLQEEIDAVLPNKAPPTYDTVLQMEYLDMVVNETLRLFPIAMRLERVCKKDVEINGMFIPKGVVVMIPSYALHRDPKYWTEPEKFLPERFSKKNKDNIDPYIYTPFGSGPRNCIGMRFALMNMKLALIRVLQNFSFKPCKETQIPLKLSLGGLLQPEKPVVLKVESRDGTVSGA
Sequence of Cytochrome P450 2C19 (P33261 whole entry): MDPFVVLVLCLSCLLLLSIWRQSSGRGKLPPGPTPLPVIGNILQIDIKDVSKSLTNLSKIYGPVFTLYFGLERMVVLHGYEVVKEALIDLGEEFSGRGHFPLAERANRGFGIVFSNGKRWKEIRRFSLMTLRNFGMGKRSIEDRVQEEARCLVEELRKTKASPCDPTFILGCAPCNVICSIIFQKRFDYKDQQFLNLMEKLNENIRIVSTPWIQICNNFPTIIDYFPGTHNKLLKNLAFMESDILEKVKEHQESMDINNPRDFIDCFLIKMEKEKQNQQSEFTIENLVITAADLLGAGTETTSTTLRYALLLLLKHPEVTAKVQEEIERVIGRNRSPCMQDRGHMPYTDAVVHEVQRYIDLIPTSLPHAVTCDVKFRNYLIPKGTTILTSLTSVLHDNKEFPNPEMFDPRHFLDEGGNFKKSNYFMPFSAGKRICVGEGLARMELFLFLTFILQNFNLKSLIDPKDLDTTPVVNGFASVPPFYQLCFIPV
Sequence of Cytochrome P450 2D6 (P10635 whole entry): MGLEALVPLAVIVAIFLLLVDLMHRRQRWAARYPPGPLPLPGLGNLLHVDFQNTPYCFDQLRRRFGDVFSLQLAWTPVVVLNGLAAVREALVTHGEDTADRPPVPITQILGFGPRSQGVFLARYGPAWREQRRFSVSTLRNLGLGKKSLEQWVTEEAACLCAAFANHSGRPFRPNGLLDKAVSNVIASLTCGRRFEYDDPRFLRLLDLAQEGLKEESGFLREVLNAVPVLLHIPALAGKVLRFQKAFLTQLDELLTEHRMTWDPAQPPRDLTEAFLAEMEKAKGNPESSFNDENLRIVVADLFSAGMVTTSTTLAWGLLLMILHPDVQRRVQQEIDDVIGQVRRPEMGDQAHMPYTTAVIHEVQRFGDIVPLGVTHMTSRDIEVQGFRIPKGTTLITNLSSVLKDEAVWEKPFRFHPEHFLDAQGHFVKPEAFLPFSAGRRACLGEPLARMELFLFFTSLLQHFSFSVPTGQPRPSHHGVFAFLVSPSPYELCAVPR
T1 sequence (P11712 whole entry): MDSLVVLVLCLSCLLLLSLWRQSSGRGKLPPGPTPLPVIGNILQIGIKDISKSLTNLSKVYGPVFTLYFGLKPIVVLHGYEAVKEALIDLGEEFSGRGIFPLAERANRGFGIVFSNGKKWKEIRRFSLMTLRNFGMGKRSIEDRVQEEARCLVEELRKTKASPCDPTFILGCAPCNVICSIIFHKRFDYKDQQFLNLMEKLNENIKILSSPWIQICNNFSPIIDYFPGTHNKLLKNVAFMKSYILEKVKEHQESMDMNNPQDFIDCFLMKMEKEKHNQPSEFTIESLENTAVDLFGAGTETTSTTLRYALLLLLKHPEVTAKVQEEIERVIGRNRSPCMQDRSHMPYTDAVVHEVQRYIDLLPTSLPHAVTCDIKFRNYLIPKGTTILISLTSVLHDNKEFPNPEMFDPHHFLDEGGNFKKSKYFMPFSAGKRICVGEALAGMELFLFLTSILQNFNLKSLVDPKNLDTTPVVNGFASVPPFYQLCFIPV
Sequence of Genome polyprotein (P29990 2492-3391 limits assumed): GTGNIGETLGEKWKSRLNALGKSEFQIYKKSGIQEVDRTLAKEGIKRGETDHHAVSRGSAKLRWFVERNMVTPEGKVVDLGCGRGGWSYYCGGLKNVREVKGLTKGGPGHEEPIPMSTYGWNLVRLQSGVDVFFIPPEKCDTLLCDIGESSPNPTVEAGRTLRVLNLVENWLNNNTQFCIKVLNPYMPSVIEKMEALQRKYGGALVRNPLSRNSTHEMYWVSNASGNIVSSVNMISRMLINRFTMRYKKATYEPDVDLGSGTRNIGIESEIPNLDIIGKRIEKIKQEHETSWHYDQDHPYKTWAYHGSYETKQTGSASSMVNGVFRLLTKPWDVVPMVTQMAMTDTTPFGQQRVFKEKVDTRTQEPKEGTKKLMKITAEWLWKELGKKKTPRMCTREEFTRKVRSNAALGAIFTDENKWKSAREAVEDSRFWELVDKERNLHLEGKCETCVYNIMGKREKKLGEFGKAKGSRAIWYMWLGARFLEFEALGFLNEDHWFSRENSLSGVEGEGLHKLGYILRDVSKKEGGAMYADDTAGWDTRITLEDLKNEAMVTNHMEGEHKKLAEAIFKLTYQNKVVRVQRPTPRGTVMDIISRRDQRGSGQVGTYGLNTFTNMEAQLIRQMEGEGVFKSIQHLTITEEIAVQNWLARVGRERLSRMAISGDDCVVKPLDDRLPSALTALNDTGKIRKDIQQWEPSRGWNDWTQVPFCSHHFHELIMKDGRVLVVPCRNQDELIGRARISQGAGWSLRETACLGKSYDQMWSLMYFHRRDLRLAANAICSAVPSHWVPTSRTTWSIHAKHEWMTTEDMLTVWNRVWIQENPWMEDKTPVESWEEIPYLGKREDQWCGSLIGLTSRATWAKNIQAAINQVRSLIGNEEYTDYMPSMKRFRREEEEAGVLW
Sequence of Nucleotide-binding oligomerization domain-containing protein 2 (Q9HC29 whole entry, the tested form may be a part): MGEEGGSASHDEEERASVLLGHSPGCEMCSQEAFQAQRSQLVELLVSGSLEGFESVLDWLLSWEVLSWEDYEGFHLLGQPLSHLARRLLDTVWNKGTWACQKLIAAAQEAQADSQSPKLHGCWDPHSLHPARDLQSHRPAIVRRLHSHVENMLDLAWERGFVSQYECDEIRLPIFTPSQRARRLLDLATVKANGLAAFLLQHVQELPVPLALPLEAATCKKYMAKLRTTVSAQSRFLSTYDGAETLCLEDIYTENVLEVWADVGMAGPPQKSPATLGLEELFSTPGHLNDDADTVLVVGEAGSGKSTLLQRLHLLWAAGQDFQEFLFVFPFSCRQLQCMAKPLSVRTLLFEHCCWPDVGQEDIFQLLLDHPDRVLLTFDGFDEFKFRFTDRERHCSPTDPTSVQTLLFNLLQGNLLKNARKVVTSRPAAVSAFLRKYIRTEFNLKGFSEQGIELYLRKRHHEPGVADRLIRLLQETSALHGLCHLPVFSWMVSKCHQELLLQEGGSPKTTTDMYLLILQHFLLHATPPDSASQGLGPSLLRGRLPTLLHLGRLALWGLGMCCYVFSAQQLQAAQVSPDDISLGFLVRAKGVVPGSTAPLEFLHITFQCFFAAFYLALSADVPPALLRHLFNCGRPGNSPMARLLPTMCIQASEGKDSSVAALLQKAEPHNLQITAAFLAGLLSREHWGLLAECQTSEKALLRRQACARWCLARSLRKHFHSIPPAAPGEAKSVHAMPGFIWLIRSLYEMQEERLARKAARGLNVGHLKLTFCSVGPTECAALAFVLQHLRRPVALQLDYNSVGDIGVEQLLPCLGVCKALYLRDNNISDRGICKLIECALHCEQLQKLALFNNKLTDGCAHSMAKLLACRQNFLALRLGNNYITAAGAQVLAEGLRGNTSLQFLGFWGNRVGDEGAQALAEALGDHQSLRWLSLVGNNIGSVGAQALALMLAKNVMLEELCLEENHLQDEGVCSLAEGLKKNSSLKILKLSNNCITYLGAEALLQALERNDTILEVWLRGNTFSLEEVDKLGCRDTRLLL

O=c1nc2n(c(O)c1C(c1ccc(O)cc1)c1c(O)nc3n(c1=O)CCS3)CCS2 (stereo not drawn)
IC50 (Genome polyprotein): 48.5 µM (active)

COc1ccc2c(Cl)cc(NC(=S)Nc3ccccc3)nc2c1
AC50 (Cytochrome P450 2C19): 3.16 µM (inconclusive)
AC50 (Cytochrome P450 2C9 [1]): 3.98 µM (inconclusive)
AC50 (Cytochrome P450 3A4 [2]): inconclusive

Cc1ccc(OCC(=O)NNC(=O)c2cc3ccccc3o2)cc1C
AC50 (Cytochrome P450 2C19): 3.55 µM (inconclusive)
AC50 (Cytochrome P450 1A2): 2.51 µM (inconclusive)
AC50 (Cytochrome P450 2C9 [3]): inconclusive

Cn1cccc1C(=O)N1CCC2(CC1)CCN(c1ccccc1)CC2
AC50 (Cytochrome P450 1A2): 12.6 µM (inconclusive)
AC50 (Cytochrome P450 3A4 [2]): inconclusive

CC(=O)CC1(OC(C)=O)C(=O)N(C)c2ccccc21 (stereo not drawn)
CC50 [4]: 35.5 µM (active)
CC50 [5]: 15.5 µM (active)
IC50 (cells): 14.4 µM (active)

CC1CCc2sc3ncnc(N4CCOCC4)c3c2C1 (stereo not drawn)
EC50 (HEK293 [6]): 6.02 µM (active)
IC50 (HEK293 [7]): 3.54 µM (active)
IC50 (HEK293 [8]): > 20 µM (inactive)
EC50 [9]: 8.76 µM (active)
IC50 (HEK293 [10]): 4.85 µM (active)
IC50 (HEK293 [11]): > 20 µM (inactive)

Cc1ccccc1C(=O)NC(C)c1ccc2c(c1)CCCC2 (stereo not drawn)
AC50 (Cytochrome P450 2D6): 15.8 µM (inconclusive)
AC50 (Cytochrome P450 2C9 [3]): inconclusive

Cc1sc2nc(C(C)C)nc(SCC(=O)NCc3ccco3)c2c1C
IC50 (Cysteine protease ATG4B): 11.1 µM (active)
IC50 (Phospholipase A2): 5.93 µM (active)

Cc1ccc(C)c(S(=O)(=O)NCc2ccc(C(=O)N3CCC(Cc4ccccc4)CC3)cc2)c1
EC50 [12]: 2.66 µM (active)
EC50 [13]: > 60 µM (not active)
AC50 (Cytochrome P450 2C9 [3]): inconclusive

CCOC(=O)c1ccc2nc(C)c(CCC(C)=O)c(Cl)c2c1
AC50 (Cytochrome P450 2C9 [1]): 1 µM (inconclusive)
AC50 (Cytochrome P450 3A4 [2]): inconclusive

COc1ccc(OC)c(N2C(=O)NC(=O)/C(=C/c3ccc([N+](=O)[O-])s3)C2=O)c1
EC50 [12]: 2.1 µM (active)
EC50 [13]: > 60 µM (inconclusive)
IC50 (cells): 23.7 µM (active)
AC50 [14]: 3.06 µM (active)
IC50 (Genome polyprotein): 18.8 µM (active)

CCC[N+]1(CC#CC2(O)CCCCC2)CCOCC1
EC50 [15]: > 150 µM (not active)
EC50 (Streptokinase A): > 150 µM (not active)
EC50 (Streptococcus): > 150 µM (not active)
IC50 [16]: 5.44 µM (active)

COc1cc(NS(=O)(=O)c2ccc(Nc3nc(-c4cccc([N+](=O)[O-])c4)cs3)cc2)nc(OC)n1
IC50 (Cysteine protease ATG4B): 11.3 µM (active)
IC50 (Phospholipase A2): 9.57 µM (active)

CCOc1cc(/C=C2/SC(=S)N(CC(=O)O)C2=O)ccc1OC(=O)c1cccs1
IC50 (Genome polyprotein): 56.3 µM (active)

CCN(CC)c1nc2ccccc2[nH]1.Cl
AC50 (Cytochrome P450 2D6): 25.1 µM (inconclusive)
AC50 (Cytochrome P450 2C9 [3]): inconclusive

c1ccc2c(CSCCc3ccncc3)cccc2c1
AC50 (Cytochrome P450 3A4 [2]): inconclusive

O=C(N/N=C/c1ccco1)C1CC1c1ccccc1 (stereo not drawn)
IC50 [16]: 9.59 µM (active)

CCOC(=O)C1=C(C)C/C(=N\NC(=O)c2ccccc2O)CC1
CC50 [4]: 21.8 µM (active)
CC50 [5]: 15.3 µM (active)
IC50 (cells): 10.8 µM (active)

CCOC(=O)c1c(NC=C2C(=O)CC(C)(C)CC2=O)sc(C)c1C
IC50 (Cysteine protease ATG4B): 5.45 µM (active)
IC50 (Phospholipase A2): 5.12 µM (active)

O=C(N/N=C/c1ccc([N+](=O)[O-])s1)c1cccnc1
EC50 [12]: 0.429 µM (active)
EC50 [13]: > 60 µM (not active)
CC50 [4]: 14.9 µM (active)
CC50 [5]: 14.6 µM (active)
IC50 (cells): 11.2 µM (active)

Cc1cc(C(=O)c2cnc(/N=C/N(C)C)s2)cc(C)c1O
AC50 (Cytochrome P450 2C19): 25.1 µM (inconclusive)
IC50 [17]: 108 µM (active)
AC50 (Cytochrome P450 2D6): 25.1 µM (inconclusive)
AC50 (Cytochrome P450 3A4 [18]): 25.1 µM (inconclusive)
AC50 (Cytochrome P450 2C9 [3]): inconclusive
